Data on 20 compounds can be found in ChEMBL document CHEMBL4402574, “Discovery of Acylsulfonohydrazide-Derived Inhibitors of the Lysine Acetyltransferase, KAT6A, as Potent Senescence-Inducing Anti-Cancer Agents” (J Med Chem, 2020).

Data set [1] in a line: Kinetic solubility of the compound in 0.01 M HCl at pH 2 by nephelometry. To be noted: read-out: Kinetic_solubility. Type of data set: physicochemical.
Data set [2] can be described thus: Kinetic solubility of the compound in phosphate buffer at pH 6.5 by nephelometry. It is filed as physicochemical. As to conditions: read-out: Kinetic_solubility.
A short description of data set [3]: Apparent permeability across apical to basolateral side in human Caco2 cells measured over 90 mins by LC-MS/MS analysis. Type of data set: ADME, cell-based. As to conditions: Caco-2.
Data set [4] can be described thus: Cysteine reactivity assessed as induction of confirmational change in 13C-methyl-labeled La antigen at 400 uM incubated for 1 hr at 37 degC followed by incubation at 30 degC for 15 mins in presence of DTT by ALARM NMR assay.
The nature of data set [5]: Cysteine reactivity assessed as induction of confirmational change in 13C-methyl-labeled La antigen at 400 uM incubated for 1 hr at 37 degC followed by incubation at 30 degC for 15 mins in absence of DTT by ALARM NMR assay.
The nature of data set [6]: Cmax in Swiss mouse at 30 mg/kg, ip by UPLC analysis. It is filed as ADME, organism-based. On the set-up: dose 30 mg/kg, route intraperitoneal. As to conditions: in vivo.
Data set [7] in a line: Tmax in Swiss mouse at 30 mg/kg, ip by UPLC analysis. It is filed as ADME, organism-based. As to conditions: in vivo.
The nature of data set [8]: Volume of distribution at steady state in Sprague-Dawley rat at […], iv. To be noted: in vivo, read-out: Vdss. It is filed as ADME, organism-based.
The nature of data set [9]: AUC (0 to infinity) in Sprague-Dawley rat at […], iv. As to conditions: in vivo. It is filed as ADME, organism-based. On the set-up: dose 2.9 mg/kg, time infinity, route intravenous.
A short description of data set [10]: Drug excretion in Sprague-Dawley rat urine at […], iv. Type of data set: ADME, organism-based. To be noted: in vivo, BLD = below limit of detection.
Data set [11] in a line: Cmax in Sprague-Dawley rat at 33 mg/kg, po administered as suspension using HPMC formulation. Type of data set: ADME, organism-based. The arrangement: dose 33 mg/kg, route oral. To be noted: in vivo.
The nature of data set [12]: Tmax in Sprague-Dawley rat at 33 mg/kg, po administered as suspension using HPMC formulation. It is filed as ADME, organism-based. As to conditions: in vivo.
The nature of data set [13]: AUC (0 to infinity) in Sprague-Dawley rat at 33 mg/kg, po administered as suspension using HPMC formulation. Type of data set: ADME, organism-based. On the set-up: dose 33 mg/kg, route oral, time infinity. As to conditions: in vivo.
Data set [14] can be described thus: Drug excretion in Sprague-Dawley rat urine at 33 mg/kg, po administered as suspension using HPMC formulation. Type of data set: ADME, organism-based. As to conditions: read-out: Drug excretion.
Data set [15] in a line: Cmax in Sprague-Dawley rat at 31 mg/kg, po using PEG400/Solutol HS-15/water formulation. Type of data set: ADME, organism-based. To be noted: in vivo. On the set-up: dose 31 mg/kg, route oral.
The nature of data set [16]: Tmax in Sprague-Dawley rat at 31 mg/kg, po using PEG400/Solutol HS-15/water formulation. It is filed as ADME, organism-based. To be noted: in vivo.
A short description of data set [17]: AUC (0 to infinity) in Sprague-Dawley rat at 31 mg/kg, po using PEG400/Solutol HS-15/water formulation. To be noted: in vivo. On the set-up: dose 31 mg/kg, time infinity, route oral. Type of data set: ADME, organism-based.
Data set [18] in a line: Drug excretion in Sprague-Dawley rat urine at 31 mg/kg, po using PEG400/Solutol HS-15/water formulation. Type of data set: ADME, organism-based. To be noted: read-out: Drug excretion.
A further data set is described as follows: in vivo. As to conditions: Sprague-Dawley, rat, po, 33 mg/kg.

Structures are written as SMILES. In brackets after ≈: the same amount, converted by molar mass. Bounds are passed on as bounds.

As to `C=CCOc1ccc(F)c(C(=O)NNS(=O)(=O)c2ccccc2)c1`, the solubility kinetic in data set [1] and in [2] was 50 to 100 µg/mL (≈ 143 to 285 µM) throughout.

Regarding `CCOc1cc(C)c(F)c(C(=O)NNS(=O)(=O)c2ccccc2)c1`, the solubility kinetic in [1] and in data set [2] was 12.5 to 25 µg/mL (≈ 35.5 to 70.9 µM) each time. Moreover, the Papp A→B at […] in data set [3] was 65 ×10⁻⁶ cm/s.

For `CCOc1cc(C)cc(C(=O)NNS(=O)(=O)c2ccccc2F)c1`, the Drug metabolism entry in data set [4] and in [5] was “Metabolite_Notdetected” each time. Also, the solubility kinetic in [1] and in [2] was 12.5 to 25 µg/mL (≈ 35.5 to 70.9 µM) each time. In data set [3], the apical-to-basolateral permeability (Papp A→B) at […] was found to be 47 ×10⁻⁶ cm/s.

On to `Cc1cc(OC(C)C)cc(C(=O)NNS(=O)(=O)c2ccccc2F)c1`, for which the solubility kinetic in [1] and in data set [2] was 12.5 to 25 µg/mL (≈ 34.1 to 68.2 µM) each time.

Consider `Cc1cc(-c2ncccn2)cc(C(=O)NNS(=O)(=O)c2ccccc2)c1F`, for which the solubility kinetic in data set [1] and in data set [2] was 50 to 100 µg/mL (≈ 129 to 259 µM) in each case. Moreover, the Papp A→B at […] in data set [3] turned out to be 77 ×10⁻⁶ cm/s. In data set [6], this compound gave a Cmax of 12.1 µM. Besides, the time of peak concentration (Tmax) in [7] came out at 0.28 h.

Turning to `O=C(NNS(=O)(=O)c1ccccc1F)c1cccc(-n2cccn2)c1`, the solubility kinetic in [1] and in data set [2] was 50 to 100 µg/mL (≈ 139 to 277 µM) throughout.

Take `Cc1cc(C(=O)NNS(=O)(=O)c2ccccc2F)cc(-n2cccn2)c1`: the solubility kinetic in [1] and in data set [2] was 12.5 to 25 µg/mL (≈ 33.4 to 66.8 µM) in each case.

For `Cc1cc(C(=O)NNS(=O)(=O)c2ccccc2F)cc(-c2ccco2)c1`, the solubility kinetic in data set [1] and in data set [2] was 6.3 to 12.5 µg/mL (≈ 16.8 to 33.4 µM) in each case.

Regarding `Cc1cc(-n2nccn2)cc(C(=O)NNS(=O)(=O)c2ccccc2)c1F`, the solubility kinetic in [1] and in data set [2] was 25 to 50 µg/mL (≈ 66.6 to 133 µM) each time. In data set [3], the Papp A→B at […] amounted to 53 ×10⁻⁶ cm/s.

On to `Cc1cc(-c2ccccn2)cc(C(=O)NNS(=O)(=O)c2ccccc2)c1F`, for which the solubility kinetic in data set [1] lay within 50 to 100 µg/mL (≈ 130 to 259 µM); in data set [2] it was 6.3 to 12.5 µg/mL (≈ 16.3 to 32.4 µM). Also, in [3], the Papp A→B at […] worked out at 63 ×10⁻⁶ cm/s.

`O=C(NNS(=O)(=O)c1ccccc1F)c1cccc(I)c1`: the Papp A→B at […] in data set [3] stood at 60.4 ×10⁻⁶ cm/s.

For `O=C(NNS(=O)(=O)c1ccccc1F)c1cc(F)cc(-n2cccn2)c1`, the solubility kinetic in data set [1] and in data set [2] was 25 to 50 µg/mL (≈ 66.1 to 132 µM) each time.

As to `O=C(NNS(=O)(=O)c1ccccc1F)c1cccc(-c2ccccn2)c1`, the solubility kinetic lay within 50 to 100 µg/mL (≈ 135 to 269 µM) in data set [1] and 12.5 to 25 µg/mL (≈ 33.7 to 67.3 µM) in [2].

For the compound `CC(C)Oc1cccc(C(=O)NNS(=O)(=O)c2ccccc2F)c1`, the solubility kinetic in [1] and in data set [2] was 50 to 100 µg/mL (≈ 142 to 284 µM) in each case.

Consider `Cc1cc(C(=O)NNS(=O)(=O)c2ccccc2F)cc(-c2ccccn2)c1`, for which the solubility kinetic in [1] was over 100 µg/mL; in [2], 12.5 to 25 µg/mL (≈ 32.4 to 64.9 µM).

Take `O=C(NNS(=O)(=O)c1ccccc1F)c1cccc(-c2ccco2)c1`: the Papp A→B at […] in data set [3] is 55.3 ×10⁻⁶ cm/s.

On to `CCCOc1cccc(C(=O)NNS(=O)(=O)c2ccccc2F)c1`, for which the Papp A→B at […] in [3] turned out to be 77.3 ×10⁻⁶ cm/s.

As to `Cc1cc(-n2cccn2)cc(C(=O)NNS(=O)(=O)c2ccccc2)c1F`, the solubility kinetic in [1] and in data set [2] was 6.3 to 12.5 µg/mL (≈ 16.8 to 33.4 µM) throughout. In addition, in [3], the Papp A→B at […] came to 48 ×10⁻⁶ cm/s.

`O=C(NNS(=O)(=O)c1ccccc1F)c1cc(Cl)cc(-c2cccs2)c1`: in data set [3], the apical-to-basolateral permeability (Papp A→B) at […] worked out at 27.8 ×10⁻⁶ cm/s.

On to `O=C(NNS(=O)(=O)c1ccccc1F)c1cc(F)cc(-c2ccccn2)c1` [WM-1119], for which the Drug metabolism result in data set [4] and in [5] was “Metabolite_Notdetected” in each case. Also, the solubility kinetic in data set [1] and in data set [2] was 25 to 50 µg/mL (≈ 64.2 to 128 µM) each time. In addition, the Papp A→B at […] in data set [3] came out at 60 ×10⁻⁶ cm/s. In addition, the Vd in data set [8] came out at 0.72 L/kg. For the same compound, the area under the curve AUC(0-inf) came to 6.2 µM·h in data set [9], 13 µM·h in data set [13] and 38 µM·h in [17]. Besides, in [10], the Drug excretion entry is recorded as “Bld”. Further, the Cmax was found to be 2.9 µM in [11] and 14 µM in data set [15]. The Tmax in [12] and in data set [16] was 1 h each time. Further, the dose excreted in data set [14] stood at 0.009%; in data set [18], 0.078%. The compound also returned a bioavailability in the data set “in vivo” of 18%.
